Source: patent US7632863B2, “3,4,5,4′-tetramethoxyl-α,β-diphenylethane-3′-O-sodium sulphate and its use” (The Jian Cell Biomedical Research Co., Ltd., priority 2007, dated 2009)
Like-named read-outs stand apart in the source and are kept apart here.

Key:
S180 sarcoma [1] = conditions: Dosage 1 mg/kg, i.v., S180 sarcoma-bearing mice
Excerpt: (§1) (1) Sample: 3,4,5,4′-tetramethoxyl-α,β-diphenylethane-3′-O-sodium sulphate (AS) provided by Zhejiang Cell Biomedical Research Co., Ltd., and prepared by the process in Example One. Dissolved by physiological saline for the concentration needed.
(2) Control product: Cyclophosphamide for injection (CTX), Jiangsu Hengrui Pharmaceutical Inc. Co. Batch No.: 04123021 Dissolved by physiological saline for preparation.
(§2) (1) KM mouse bearing S180 sarcoma.
(2) 50 KM mice, female, weighting 18-22 g, provided by Zhejing College of Traditional Chinese Medicine.
(1) Drawing ascites under aseptic condition from mouse bearing S180 sarcoma, diluting with physiologic saline 1:3, giving subcutaneous inoculation in the armpit of the right forelimb of the KM mice with 0.2 ml each; dividing the mice into 5 groups randomly the next day, 10 in each group.
(§3) (2) Administering drug to the mice by weight the third day of inoculation, intravenous administration 0.5 ml/20 g […], by weight, and putting them to death on the 11th day after inoculation, weighing the tumor and calculating the rate of tumor inhibition.
(§4) (3) dosage (mg/kg/d) and means of administration:
(§5) AS: 50 mg/kg, tail vein injection
(§6) AS: 100 mg/kg, tail vein injection
(§7) AS: 200 mg/kg, tail vein injection
(§8) CTX: 30 mg/kg, tail vein injection
(§9) Setting up another blank control group, tail vein injection of 0.9% NaCl 0.5 ml.
(§10) (4) Judging the result with the following formula: […]

S180 sarcoma [2] = conditions: Dosage 1 mg/kg, i.v., S180 sarcoma-bearing mice; remark: listed apart in the source
Excerpt: as §1
(2) Cisplatin: Cisplatin for injection (DDP), Qilu Pharmaceutical Co., Ltd. Batch No.: 5120282DC. Dissolved by physiological saline for preparation.
(3) Control product: Cyclophosphamide for injection (CTX), Jiangsu Hengrui Pharmaceutical Inc. Co. Batch No.: 04123021 Dissolved by physiological saline for preparation.
as §2
(2) 70 KM mice, female, weighting 18-22 g, provided by Zhejing College of Traditional Chinese Medicine.
(1) Drawing ascites under aseptic condition from mouse bearing S180 sarcoma, diluting with physiologic saline 1:3, giving subcutaneous inoculation in the armpit of the right forelimb of the KM mice with 0.2 ml each; dividing the mice into 7 groups randomly the next day, 10 in each group.
as §3, §4, §5, §6, §7
DDP: 1 mg/kg, tail vein injection
AS+DDP: 50 mg/kg+1 mg/kg, tail vein injection
as §8, §9, §10

Lewis lung cancer = experiment: Joint administration of AS and DDP, murine model of Lewis lung cancer (Example Five); type: in vivo, C57BL/6J mice; conditions: Dosage 30 mg/kg, i.p., mice bearing Lewis lung cancer
Excerpt: (1) Sample: 3,4,5,4′-tetramethoxyl-α,β-diphenylethane-3′-O-sodium sulphate (AS), raw material medicine, provided by Zhejiang Cell Biomedical Research Co., Ltd., and prepared by the process in Example One. Batch No.: 061025. Dissolved by physiological saline for the concentration needed.
(2) Cisplatin: Cisplatin for injection (DDP), Qilu Pharmaceutical Co., Ltd. Batch No.: 5120282DC; Dissolved by physiological saline for preparation
(3) Control product: Cyclophosphamide for injection (CTX), Jiangsu Hengrui Pharmaceutical Inc. Co. Batch No.: 04123021. Dissolved by physiological saline for preparation.
(1) C57BL/6J mouse bearing Lewis lung cancer
(2) 70 C57BL/6J mice, female, weighing 17-21 g. Provided by the animal house of Zhejiang Cell Biomedical Research Co., Ltd.
(1) Taking tumor from C57BL/6J mouse under aseptic condition, grinding and diluting it by physiological saline 1:3 (weight:volume), and giving hypodermic inoculation 0.2 ml per mouse in the armpit of the right forelimb of each mouse. dividing the mice into 7 groups randomly the next day, 10 in each group.
(2) After inoculation, waiting till the tumor has grown to the accessible size, administering medicine according to body weight, 0.5 ml/20 g intravenous, for 11 days, putting the mice to death on the 19th after inoculation, taking out and weighing the tumor, and calculating the tumor inhibiting rate.
as §10

[3] = background statement, species and route not given; cited from earlier work

| Compound | 0 d weight (S180 sarcoma [1]) [g] | 11 d weight without tumor (S180 sarcoma [1]) [g] | Tumor inhibiting rate % (S180 sarcoma [1]) [%] | Tumor weight (S180 sarcoma [1]) [g] | 0 d weight (S180 sarcoma [2]) [g] | 11 d weight without tumor (S180 sarcoma [2]) [g] | Tumor inhibiting rate % (S180 sarcoma [2]) [%] | Tumor weight (S180 sarcoma [2]) [g] | Tumor inhibiting rate % (Lewis lung cancer) [%] | Tumor weight (Lewis lung cancer) [g] | LD50 [3] [mg/kg] |
| --- | --- | --- | --- | --- | --- | --- | --- | --- | --- | --- | --- |
| O=P1(N(CCCl)CCCl)NCCCO1 (centres unmarked) [CTX, Cyclophosphamide, reference compound] | 21.18 ± 0.64 | 26.28 ± 1.72 | 69 | 0.90 ± 0.26 | 21.18 ± 0.64 | 26.28 ± 1.72 | 69 | 0.90 ± 0.26 | 64.3 | 1.68 ± 0.15 |  |
| COc1ccc(/C=C\c2cc(OC)c(OC)c(OC)c2)cc1O [Combretastatin A-4] |  |  |  |  |  |  |  |  |  |  | 500 |
